Source: ChEMBL document CHEMBL3137440, “DNDi T. cruzi fenarimol series dataset from which preclinical candidate EPL-BS0967 was identified (see also related datasets: CHEMBL3137386 and CHEMBL2448688)”
Values after ≈ are worked out from the molar mass of the structure shown. Values joined by “and” are separate entries in the source; they are usually repeats but may differ in a detail not shown here. Equal values may be shown once.

Assays:
Trypanosoma cruzi [1] = assay: (§1) DNDI: Chagas in Vitro; format: functional, organism-based, Tulahuen C4 (LacZ)
[2] = DNDI: Cytotoxicity against L-6 rat myoblasts from skeletal musclE; settings: L6 rat skeletal muscle myoblasts, IC50
in vitro [3] = settings: human, microsomes
Trypanosoma cruzi [4] = assay: as §1; format: functional, Tulahuen C4 (LacZ)
[5] = DNDI: Lipophilicity (gLogD) at pH 3; settings: buffer
in vitro [6] = settings: human, microsomes; remark: listed apart in the source
Leishmania donovani = assay: DNDI: Inhibition of formation of Leishmania donovani; format: functional, MHOM/ET/67/L82; parameters: concentration or dose not given beside the values
[7] = DNDI: Solubility in phosphate buffer at pH 6.5 determined by nephelometry
[8] = DNDI: Metabolism; format: ADME, Microsome; settings: rat, microsomes; for hepatic extraction ratio: read-out: EH
[9] = DNDI: Lipophilicity (gLogD) at pH 7.4; settings: buffer
[10] = DNDI: Solubility in 0.01M HCl at pH 2 determined by nephelometry
Cytochrome P450 3A4 [11] = molecular target: T1, Cytochrome P450 3A4 (Homo sapiens, UniProt P08684)
T1 sequence (P08684 whole entry): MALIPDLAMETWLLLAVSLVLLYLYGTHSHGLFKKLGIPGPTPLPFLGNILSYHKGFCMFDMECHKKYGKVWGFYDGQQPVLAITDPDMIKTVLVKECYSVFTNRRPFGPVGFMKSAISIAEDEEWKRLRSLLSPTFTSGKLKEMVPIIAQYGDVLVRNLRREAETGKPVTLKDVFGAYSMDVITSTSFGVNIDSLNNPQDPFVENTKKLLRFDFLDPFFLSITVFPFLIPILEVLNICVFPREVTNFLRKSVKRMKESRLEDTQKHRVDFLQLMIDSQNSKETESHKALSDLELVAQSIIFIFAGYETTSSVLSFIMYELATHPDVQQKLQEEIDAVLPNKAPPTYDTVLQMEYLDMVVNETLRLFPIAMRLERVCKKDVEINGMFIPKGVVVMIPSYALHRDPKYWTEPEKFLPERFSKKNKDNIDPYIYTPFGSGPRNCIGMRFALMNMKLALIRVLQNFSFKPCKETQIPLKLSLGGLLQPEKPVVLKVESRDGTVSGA

in vitro [12] = settings: human, microsomes; remark: listed apart in the source
Cytochrome P450 3A4 [13] = molecular target: T1, Cytochrome P450 3A4; remark: listed apart in the source
[14] = Trypanosoma cruzi, Tulahuen C4 (LacZ)

## N#Cc1ccc(N(c2cccnc2)C2CCN(c3ccc(C(F)(F)F)cc3)CC2)cc1
Trypanosoma cruzi [1]; [14]
  IC50: 3 nM
[2]
  IC50: > 100000 nM
In vitro [3]
  microsomal CLint: 39.5 µL/min/mg
Trypanosoma cruzi [4]
  IC90: 10 nM
Trypanosoma cruzi [4]; [14]
  IC90: 9 nM
[5]; pH 3
  chromatographic logD: 4.6
In vitro [6]
  half-life: 43.9 min
Leishmania donovani
  % inhibition: 28.1%
[7]
  solubility kinetic: < 1.6 µg/mL

## CC(C)(C)C(=O)N1CCC(N(c2ccc(C(F)(F)F)cc2)c2cccnc2)CC1
Trypanosoma cruzi [1]; [14]
  IC50: 2.66 nM
In vitro [3]
  microsomal CLint: 126 µL/min/mg
[8]
  half-life: 13.2 min
  microsomal CLint: 131 µL/min/mg
  hepatic extraction ratio: 0.81
Trypanosoma cruzi [4]; [14]
  IC90: 7.59 nM
[9]; pH 7.4
  chromatographic logD: 4.2
[5]; pH 3
  chromatographic logD: 3.1
In vitro [6]
  half-life: 13.8 min
[10]
  solubility kinetic: > 100 µg/mL
Cytochrome P450 3A4 [11]
  IC50: 1900 nM
[7]
  solubility kinetic: 6.3 µg/mL (≈ 15.5 µM)
In vitro [12]
  hepatic extraction ratio: 0.88

## O=C(c1ccccc1C(F)(F)F)N1CCC(N(c2ccc(C(F)(F)F)cc2)c2cccnc2)CC1
Trypanosoma cruzi [1]; [14]
  IC50: 0.618 nM
In vitro [3]
  microsomal CLint: 247 µL/min/mg
[8]
  half-life: 24 min
  microsomal CLint: 72.1 µL/min/mg
  hepatic extraction ratio: 0.7
Trypanosoma cruzi [4]; [14]
  IC90: 1.47 nM
[9]; pH 7.4
  chromatographic logD: 4.4
[5]; pH 3
  chromatographic logD: 3.5
In vitro [6]
  half-life: 7 min
[10]
  solubility kinetic: > 100 µg/mL
Leishmania donovani
  % inhibition: 66.3%
Cytochrome P450 3A4 [11]
  IC50: 1700 nM
[7]
  solubility kinetic: 1.6 µg/mL (≈ 3.24 µM)
In vitro [12]
  hepatic extraction ratio: 0.93

## FC(F)(F)c1ccc(N2CCC(N(c3ccc(C(F)(F)F)cc3)c3cccnc3)CC2)cc1
Trypanosoma cruzi [1]
  IC50: 23 nM and 16.5 nM
Trypanosoma cruzi [1]; [14]
  IC50: 15 nM
Trypanosoma cruzi [4]
  IC90: 28 nM and 41 nM
Trypanosoma cruzi [4]; [14]
  IC90: 38 nM
Leishmania donovani
  % inhibition: 38.5%

## N#Cc1ccccc1N1CCC(N(c2ccc(C(F)(F)F)cc2)c2cccnc2)CC1
Trypanosoma cruzi [1]; [14]
  IC50: 3 nM
In vitro [3]
  microsomal CLint: 136 µL/min/mg
Trypanosoma cruzi [4]; [14]
  IC90: 8 nM
[5]; pH 3
  chromatographic logD: 4.4
In vitro [6]
  half-life: 12.8 min
[10]
  solubility kinetic: > 100 µg/mL
Leishmania donovani
  % inhibition: 60.9%
[7]
  solubility kinetic: < 1.6 µg/mL
In vitro [12]
  hepatic extraction ratio: 0.88

## N#Cc1ccc(N2CCC(N(c3ccc(C(F)(F)F)cc3)c3cccnc3)CC2)cc1
Trypanosoma cruzi [1]; [14]
  IC50: 7 nM
[2]
  IC50: > 100000 nM
In vitro [3]
  microsomal CLint: 112 µL/min/mg
Trypanosoma cruzi [4]; [14]
  IC90: 13 nM
[9]; pH 7.4
  chromatographic logD: 4.7
[5]; pH 3
  chromatographic logD: 4.3
In vitro [6]
  half-life: 15.5 min
[10]
  solubility kinetic: 50 µg/mL (≈ 118 µM)
Leishmania donovani
  % inhibition: 51.5%
[7]
  solubility kinetic: < 1.6 µg/mL

## Cc1ncsc1C(=O)N1CCC(N(c2ccc(C(F)(F)F)cc2)c2cccnc2)CC1
Trypanosoma cruzi [1]; [14]
  IC50: 6.93 nM
[2]
  IC50: 67400 nM
In vitro [3]
  microsomal CLint: 105 µL/min/mg
[8]
  half-life: 28.1 min
  microsomal CLint: 61.8 µL/min/mg
  hepatic extraction ratio: 0.67
Trypanosoma cruzi [4]; [14]
  IC90: 11 nM
[9]; pH 7.4
  chromatographic logD: 3.3
[5]; pH 3
  chromatographic logD: 2.1
In vitro [6]
  half-life: 16.6 min
[10]
  solubility kinetic: > 100 µg/mL
Cytochrome P450 3A4 [11]
  IC50: 2900 nM
[7]
  solubility kinetic: 12.5 µg/mL (≈ 28 µM)
In vitro [12]
  hepatic extraction ratio: 0.85

## N#Cc1ccc(N(c2cccnc2)C2CCN(c3ccc(F)c(F)c3)CC2)cc1
Trypanosoma cruzi [1]; [14]
  IC50: 1.8 nM
[2]
  IC50: > 100000 nM
In vitro [3]
  microsomal CLint: 73.7 µL/min/mg
Trypanosoma cruzi [4]; [14]
  IC90: 3 nM
[9]; pH 7.4
  chromatographic logD: 4.4
Cytochrome P450 3A4 [13]
  IC50: 4300 nM
[5]; pH 3
  chromatographic logD: 4.2
In vitro [6]
  half-life: 23.5 min
[10]
  solubility kinetic: 6.3 µg/mL (≈ 16.1 µM)
[7]
  solubility kinetic: < 1.6 µg/mL
In vitro [12]
  hepatic extraction ratio: 0.8

## CN(C)S(=O)(=O)c1cccc(N2CCC(N(c3ccc(C(F)(F)F)cc3)c3cccnc3)CC2)c1
Trypanosoma cruzi [1]; [14]
  IC50: 15 nM
[2]
  IC50: 10400 nM
In vitro [3]
  microsomal CLint: 258 µL/min/mg
Trypanosoma cruzi [4]; [14]
  IC90: 31 nM
[9]; pH 7.4
  chromatographic logD: 4.7
Cytochrome P450 3A4 [13]
  IC50: 7000 nM
[5]; pH 3
  chromatographic logD: 4.4
In vitro [6]
  half-life: 6.7 min
[10]
  solubility kinetic: 25 µg/mL (≈ 49.5 µM)
[7]
  solubility kinetic: < 1.6 µg/mL
In vitro [12]
  hepatic extraction ratio: 0.94

## CN(C)S(=O)(=O)c1cccc(N2CCC(N(c3ccc(C#N)cc3)c3cccnc3)CC2)c1
Trypanosoma cruzi [1]; [14]
  IC50: 6 nM
In vitro [3]
  microsomal CLint: 504 µL/min/mg
Trypanosoma cruzi [4]; [14]
  IC90: 11 nM
[9]; pH 7.4
  chromatographic logD: 3.7
Cytochrome P450 3A4 [13]
  IC50: 6000 nM
[5]; pH 3
  chromatographic logD: 3.6
In vitro [6]
  half-life: 3.4 min
[10]
  solubility kinetic: 50 µg/mL (≈ 108 µM)
[7]
  solubility kinetic: < 1.6 µg/mL
In vitro [12]
  hepatic extraction ratio: 0.97

## CCC(C(C)=O)N1CCC(N(c2ccc(C(F)(F)F)cc2)c2cccnc2)CC1 (stereo not drawn)
Trypanosoma cruzi [1]; [14]
  IC50: 8 nM
[2]
  IC50: 25000 nM
In vitro [3]; CLint
  microsomal CLint: 156 µL/min/mg
Trypanosoma cruzi [4]; [14]
  IC90: 20 nM
[9]; pH 7.4, logD
  chromatographic logD: 4.6
Cytochrome P450 3A4 [13]
  IC50: 10000 nM
[5]; pH 3, logD
  chromatographic logD: 1.6
In vitro [6]; t (1 / 2)
  half-life: 11.1 min
[10]
  solubility kinetic: > 100 µg/mL
[7]
  solubility kinetic: 12.5 µg/mL (≈ 30.8 µM)
In vitro [12]; EH
  hepatic extraction ratio: 0.9

## CC(=O)C(C)N1CCC(N(c2ccc(C(F)(F)F)cc2)c2cccnc2)CC1 (stereo not drawn)
Trypanosoma cruzi [1]; [14]
  IC50: 15 nM
[2]
  IC50: 69000 nM
In vitro [3]; CLint
  microsomal CLint: 80.7 µL/min/mg
Trypanosoma cruzi [4]; [14]
  IC90: 31 nM
[9]; pH 7.4, logD
  chromatographic logD: 4.2
Cytochrome P450 3A4 [13]
  IC50: 5000 nM
[5]; pH 3, logD
  chromatographic logD: 1.3
In vitro [6]; t (1 / 2)
  half-life: 21.5 min
[10]
  solubility kinetic: > 100 µg/mL
[7]
  solubility kinetic: 6.3 µg/mL (≈ 16.1 µM)
In vitro [12]; EH
  hepatic extraction ratio: 0.82

## N#Cc1cc(C(F)(F)F)ccc1N1CCC(N(c2ccc(C(F)(F)F)cc2)c2cccnc2)CC1
Trypanosoma cruzi [1]; [14]
  IC50: 7 nM
[2]
  IC50: 24300 nM
In vitro [3]
  microsomal CLint: 52.9 µL/min/mg
Trypanosoma cruzi [4]; [14]
  IC90: 11 nM
[9]; pH 7.4
  chromatographic logD: > 5.3
Cytochrome P450 3A4 [13]
  IC50: > 20000 nM
[5]; pH 3
  chromatographic logD: 5.2
In vitro [6]
  half-life: 32.8 min
[10]
  solubility kinetic: 12.5 µg/mL (≈ 25.5 µM)
[7]
  solubility kinetic: < 1.6 µg/mL
In vitro [12]
  hepatic extraction ratio: 0.75

## N#Cc1cc(C(F)(F)F)ccc1N1CCC(N(c2ccc(Cl)cc2)c2cccnc2)CC1
Trypanosoma cruzi [1]; [14]
  IC50: 5 nM
[2]
  IC50: 17700 nM
In vitro [3]
  microsomal CLint: 103 µL/min/mg
Trypanosoma cruzi [4]; [14]
  IC90: 10.5 nM
[9]; pH 7.4
  chromatographic logD: > 5.3
Cytochrome P450 3A4 [13]
  IC50: > 20000 nM
[5]; pH 3
  chromatographic logD: 4.7
In vitro [6]
  half-life: 16.8 min
[10]
  solubility kinetic: 25 µg/mL (≈ 54.7 µM)
[7]
  solubility kinetic: < 1.6 µg/mL
In vitro [12]
  hepatic extraction ratio: 0.85

## Cn1nc(C2CC2)cc1N1CCC(N(c2ccc(C(F)(F)F)cc2)c2cccnc2)CC1
Trypanosoma cruzi [1]; [14]
  IC50: 7 nM
[2]
  IC50: 30000 nM
In vitro [3]
  microsomal CLint: 118 µL/min/mg
Trypanosoma cruzi [4]; [14]
  IC90: 13.5 nM
[9]; pH 7.4
  chromatographic logD: 4.8
Cytochrome P450 3A4 [13]
  IC50: > 20000 nM
[5]; pH 3
  chromatographic logD: 4.6
In vitro [6]
  half-life: 14.6 min
[10]
  solubility kinetic: 50 µg/mL (≈ 113 µM)
[7]
  solubility kinetic: < 1.6 µg/mL
In vitro [12]
  hepatic extraction ratio: 0.87

## CCC(C(C)O)N1CCC(N(c2ccc(C(F)(F)F)cc2)c2cccnc2)CC1 (stereo not drawn)
Trypanosoma cruzi [1]; [14]
  IC50: 61 nM
[2]
  IC50: 49600 nM
In vitro [3]; CLint
  microsomal CLint: 48.4 µL/min/mg
Trypanosoma cruzi [4]; [14]
  IC90: > 100 nM
[9]; pH 7.4, logD
  chromatographic logD: 4.3
Cytochrome P450 3A4 [13]
  IC50: 17000 nM
[5]; pH 3, logD
  chromatographic logD: 1.6
In vitro [6]; t (1 / 2)
  half-life: 35.8 min
[10]
  solubility kinetic: > 100 µg/mL
[7]
  solubility kinetic: 25 µg/mL (≈ 61.4 µM)
In vitro [12]; EH
  hepatic extraction ratio: 0.73

## CC(C)C(O)CN1CCC(N(c2ccc(C(F)(F)F)cc2)c2cccnc2)CC1 (stereo not drawn)
Trypanosoma cruzi [1]; [14]
  IC50: 36 nM
[2]
  IC50: 51500 nM
In vitro [3]; CLint
  microsomal CLint: 58.2 µL/min/mg
Trypanosoma cruzi [4]; [14]
  IC90: > 10000 nM
[9]; pH 7.4, logD
  chromatographic logD: 3.9
Cytochrome P450 3A4 [13]
  IC50: > 20000 nM
[5]; pH 3, logD
  chromatographic logD: 1.6
In vitro [6]; t (1 / 2)
  half-life: 29.8 min
[10]
  solubility kinetic: > 100 µg/mL
[7]
  solubility kinetic: 25 µg/mL (≈ 61.4 µM)
In vitro [12]; EH
  hepatic extraction ratio: 0.76
